In US7465799B2, “Methods and compositions for selectin inhibition” (Wyeth, priority 2003, dated 2008):

Target: T1, P-selectin binding to P-selectin glycoprotein ligand-1 (PSGL-1) (Homo sapiens, UniProt P16109)
T1 construct: truncated form of human P-selectin comprised of the lectin and EGF domains (P-LE)
T1 sequence (P16109 42-198): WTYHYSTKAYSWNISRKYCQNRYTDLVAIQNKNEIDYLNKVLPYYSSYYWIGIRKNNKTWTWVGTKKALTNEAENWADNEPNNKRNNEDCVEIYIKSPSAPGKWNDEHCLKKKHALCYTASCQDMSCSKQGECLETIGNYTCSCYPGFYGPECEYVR
Experiment: Biacore assay: inhibition of P-selectin (P-LE) binding to PSGL-1 (SGP-3)
Conditions: at 1 mM
Method: Compounds of the invention can be assayed for selectin inhibitory activity using any of the procedures known in the art. One convenient procedure is the determination of IC50 values for inhibition of P-selectin binding to P-selectin glycoprotein ligand-1 (PSGL-1) using Biacore.
The Biacore 3000 is an instrument that uses surface plasmon resonance to detect binding of a solution phase analyte to an immobilized ligand on a sensor chip surface. The analyte sample is injected under flow using a microfluidic system. Binding of analyte to ligand causes a change in the angle of refracted light at the surface of the sensor chip, measured by the Biacore instrument in resonance units (RUs).
SGP-3 is a purified sulfoglycopeptide form of human PSGL-1 that contains the P-selectin binding determinants (See Somers et al., 2000, Cell 103, 467-479). SGP-3 was biotinylated via amine chemistry at a unique C-terminal lysine residue and immobilized on streptavidin-coated SA sensor chip. […]
The Biacore assay measures the signal in RU produced by binding of P-LE to SGP-3 in the presence and absence of inhibitors. Percent inhibition of binding is calculated by dividing the inhibited signal by the uninhibited signal subtracting this value from one then multiplying by one hundred. […] The data from this titration are plotted, RU values vs. concentration, and the IC50 is determined by extrapolation from the plot. […]

Percent inhibition of binding (positive control): 50%
SMILES: CC1(C)[C@@H](O[C@H]2O[C@H](C(=O)O)[C@@H](O)[C@H](O)[C@H]2O[C@@H]2O[C@H](C(=O)O)[C@@H](O)[C@H](O)[C@H]2O)CC[C@]2(C)[C@H]3C(=O)C=C4[C@@H]5C[C@@](C)(C(=O)O)CC[C@]5(C)CC[C@@]4(C)[C@]3(C)CC[C@@H]12 [Glycerrhizzin]
